Assay results published in publication PMC6321168, “Comparative Study on Excretive Characterization of Main Components in Herb Pair Notoginseng-Safflower and Single Herbs by LC–MS/MS” (Pharmaceutics, 2018).

Experiment: Fecal excretion study in rats after oral NS, SF or CNS (LC–MS/MS)
Type: in vivo
Details: rat feces
How it was run: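 Fasted male rats (n = 6/group) dosed by oral gavage with NS 60 mg/kg, SF 50 mg/kg or both; feces collected in metabolic cages over intervals to 120 h. Water extracts partitioned into n-BuOH and quantified by negative-ESI LC–MS/MS (MRM); excretion given as % cumulative of ingested dose.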

SMILES: CC(C)=CCC[C@](C)(O[C@@H]1O[C@H](CO)[C@@H](O)[C@H](O)[C@H]1O)[C@H]1CC[C@]2(C)[C@@H]1[C@H](O)C[C@@H]1[C@@]3(C)CC[C@H](O)C(C)(C)[C@@H]3[C@@H](O[C@@H]3O[C@H](CO)[C@@H](O)[C@H](O)[C@H]3O)C[C@]12C [ginsenoside Rg1]
- concentration at 4 h (male, Sprague Dawley, oral CNS 110 mg/kg, 4 h): 1100 ± 1520 ng/mL
- concentration at 8 h (male, Sprague Dawley, oral CNS 110 mg/kg, 8 h): 1710 ± 54 ng/mL
- concentration at 12 h (male, Sprague Dawley, oral CNS 110 mg/kg, 12 h): 1110 ± 221 ng/mL
- concentration at 24 h (male, Sprague Dawley, oral CNS 110 mg/kg, 24 h): 980 ± 138 ng/mL
- concentration at 36 h (male, Sprague Dawley, oral CNS 110 mg/kg, 36 h): 959 ± 40 ng/mL
- concentration at 48 h (male, Sprague Dawley, oral CNS 110 mg/kg, 48 h): 943 ± 49 ng/mL
- concentration at 72 h (male, Sprague Dawley, oral CNS 110 mg/kg, 72 h): 324 ± 249 ng/mL
- concentration at 96 h (male, Sprague Dawley, oral CNS 110 mg/kg, 96 h): 24 ± 24 ng/mL
- concentration at 4 h (male, Sprague Dawley, oral NS 60 mg/kg, 4 h): 1510 ± 256 ng/mL
- concentration at 8 h (male, Sprague Dawley, oral NS 60 mg/kg, 8 h): 473 ± 16 ng/mL
- concentration at 12 h (male, Sprague Dawley, oral NS 60 mg/kg, 12 h): 1090 ± 88 ng/mL
- concentration at 24 h (male, Sprague Dawley, oral NS 60 mg/kg, 24 h): 2040 ± 55 ng/mL
- concentration at 36 h (male, Sprague Dawley, oral NS 60 mg/kg, 36 h): 2020 ± 54 ng/mL
- concentration at 48 h (male, Sprague Dawley, oral NS 60 mg/kg, 48 h): 2080 ± 47 ng/mL
- concentration at 72 h (male, Sprague Dawley, oral NS 60 mg/kg, 72 h): 116 ± 8 ng/mL
- concentration at 96 h (male, Sprague Dawley, oral NS 60 mg/kg, 96 h): 23 ± 1 ng/mL
- concentration at 120 h (male, Sprague Dawley, oral NS 60 mg/kg, 120 h): 22 ± 2 ng/mL
- Accumulative excretion amount (oral CNS 110 mg/kg, 4 h): 14.286 ± 20.907 µg
- Accumulative excretion percentage (oral CNS 110 mg/kg, 4 h): 0.474±0.681%
- Excretion amount (oral CNS 110 mg/kg, 4 h): 14.286 ± 20.907 µg
- Accumulative excretion amount (oral CNS 110 mg/kg, 8 h): 39.952 ± 21.244 µg
- Accumulative excretion percentage (oral CNS 110 mg/kg, 8 h): 1.303±0.695%
- Accumulative excretion amount (oral CNS 110 mg/kg, 12 h): 56.860 ± 20.559 µg
- Excretion amount (oral CNS 110 mg/kg, 12 h): 16.908 ± 6.636 µg
- Accumulative excretion amount (oral CNS 110 mg/kg, 24 h): 71.363 ± 24.096 µg
- Accumulative excretion percentage (oral CNS 110 mg/kg, 24 h): 2.331±0.796%
- Excretion amount (oral CNS 110 mg/kg, 24 h): 14.504 ± 4.143 µg
- Accumulative excretion amount (oral CNS 110 mg/kg, 36 h): 85.729 ± 27.211 µg
- Accumulative excretion percentage (oral CNS 110 mg/kg, 36 h): 2.802±0.894%
- Excretion amount (oral CNS 110 mg/kg, 36 h): 14.365 ± 4.335 µg
- Accumulative excretion amount (oral CNS 110 mg/kg, 48 h): 99.901 ± 30.374 µg
- Accumulative excretion percentage (oral CNS 110 mg/kg, 48 h): 3.265±0.994%
- Excretion amount (oral CNS 110 mg/kg, 48 h): 14.173 ± 4.533 µg
- Accumulative excretion amount (oral CNS 110 mg/kg, 72 h): 105.113 ± 30.466 µg
- Accumulative excretion percentage (oral CNS 110 mg/kg, 72 h): 3.431±0.996%
- Excretion amount (oral CNS 110 mg/kg, 72 h): 5.212 ± 4.367 µg
- Accumulative excretion amount (oral CNS 110 mg/kg, 96 h): 105.509 ± 30.482 µg
- Accumulative excretion percentage (oral CNS 110 mg/kg, 96 h): 3.441±0.996%
- Excretion amount (oral CNS 110 mg/kg, 96 h): 0.396 ± 0.402 µg
- Accumulative excretion amount (oral CNS 110 mg/kg, 120 h): 105.509 ± 30.482 µg
- Accumulative excretion percentage (oral CNS 110 mg/kg, 120 h): 3.442±0.994%
- Accumulative excretion amount (oral NS 60 mg/kg, 4 h): 21.063 ± 5.410 µg
- Accumulative excretion percentage (oral NS 60 mg/kg, 4 h): 0.612±0.145%
- Excretion amount (oral NS 60 mg/kg, 4 h): 21.063 ± 5.410 µg
- Accumulative excretion amount (oral NS 60 mg/kg, 8 h): 27.855 ± 7.375 µg
- Accumulative excretion percentage (oral NS 60 mg/kg, 8 h): 0.798±0.216%
- Excretion amount (oral NS 60 mg/kg, 8 h): 6.792 ± 2.122 µg
- Accumulative excretion percentage (oral NS 60 mg/kg, 12 h): 1.244±0.343%
- Excretion amount (oral NS 60 mg/kg, 12 h): 15.587 ± 4.879 µg
- Accumulative excretion amount (oral NS 60 mg/kg, 24 h): 72.682 ± 20.662 µg
- Accumulative excretion percentage (oral NS 60 mg/kg, 24 h): 2.071±0.592%
- Excretion amount (oral NS 60 mg/kg, 24 h): 29.239 ± 8.754 µg
- Accumulative excretion amount (oral NS 60 mg/kg, 36 h): 101.659 ± 29.524 µg
- Accumulative excretion percentage (oral NS 60 mg/kg, 36 h): 2.904±0.845%
- Excretion amount (oral NS 60 mg/kg, 36 h): 28.977 ± 8.942 µg
- Accumulative excretion amount (oral NS 60 mg/kg, 48 h): 131.700 ± 39.092 µg
- Accumulative excretion percentage (oral NS 60 mg/kg, 48 h): 3.751±1.111%
- Excretion amount (oral NS 60 mg/kg, 48 h): 30.041 ± 9.594 µg
- Accumulative excretion amount (oral NS 60 mg/kg, 72 h): 133.372 ± 39.629 µg
- Accumulative excretion percentage (oral NS 60 mg/kg, 72 h): 3.801±1.132%
- Excretion amount (oral NS 60 mg/kg, 72 h): 1.673 ± 0.554 µg
- Accumulative excretion percentage (oral NS 60 mg/kg, 96 h): 3.814±1.133%
- Excretion amount (oral NS 60 mg/kg, 96 h): 0.327 ± 0.104 µg
- Accumulative excretion percentage (oral NS 60 mg/kg, 120 h): 3.824±1.132%
- Excretion amount (oral NS 60 mg/kg, 120 h): 0.315 ± 0.110 µg
